For one experiment, the system named is HeLa cells. As to the kind of experiment: 35S-methionine incorporation (protein synthesis) in HeLa cells. In kind it is cell-based. The procedure: FIG. 4. Effect of hippuristanol on protein, RNA and DNA synthesis in cells. A. Relative rate of ^35S-methionine incorporation as a function of hippuristanol concentration in HeLa cells. Cells were exposed to the indicated concentration of compound for 50 min., followed by a 10 min. labeling period with ^35S-methionine in the presence of compound. The rate of protein synthesis (TCA precipitable cpm) obtained in the presence of compound was normalized to the rate obtained in the presence of DMSO (which was set at 1). The rate of protein synthesis in the control reactions (containing DMSO vehicle) averaged ˜700,000 cpm/10 min. labeling period. Results are shown for two experiments and the error of the mean is presented. The relative rate of ^35S-methionine incorporation in HeLa cells exposed to 10 μM anisomycin (positive control) for 60 min. was ˜0.02 (data not shown). B. Effect of hippuristanol on protein (gray circles), DNA (open squares), and RNA (solid squares) synthesis in HeLa cells. The rate of macromolecular synthesis (TCA precipitable cpm for a 10 min. labeling period) obtained in the presence of 1 μM hippuristanol was normalized to the rate obtained in the presence of DMSO and is plotted. The results are shown for two experiments and the error of the mean is presented. The rate of protein, RNA and DNA synthesis in the control reactions (containing DMSO vehicle) averaged ˜900,000 cpm/10 min, ˜16,000 cpm/10 min. and 7,000 cpm/10 min labeling, respectively. The relative rate of ^35S-methionine incorporation by HeLa cells exposed to 10 μM anisomycin for 60 min. (positive control for inhibition of protein synthesis) was 0.02 (data not shown). The relative rate of ^3H-uridine incorporation by HeLa cells exposed to 50 μM actinomycin (positive control for inhibition of RNA synthesis) for 60 min. was 0.01 (data not shown). C. […] Gradients were analyzed by piercing the tube with a Brandel tube piercer, passing 60% sucrose through the bottom of the tube, and monitoring the absorbance of the material eluting from the tube using an ISCO UA-6 UV Detector.

A further experiment concerns the target T1, eIF4AIf (Mus musculus, UniProt P60843).
T1 construct: inferred only from the Ni-NTA purification; made in house; host or cells: Escherichia coli BL21 (DE3) codon+
As to the kind of experiment: UV crosslinking of alpha-32P-ATP to recombinant eIF4AIf. In kind it is binding, murine. The note with it: 50 μM. The procedure:
(§1) FIG. 7. Effects of hippuristanol on ATP hydrolysis, ATP binding, and RNA binding activities of eIF4A. A. Hippuristanol inhibits eIF4AIf RNA-dependent ATPase activity. The rate of ATP hydrolysis as a function of hippuristanol concentration is plotted relative to the rate obtained in the presence of vehicle (0.5% DMSO). ATP hydrolysis was measured in the presence of 2.5 μM poly (U) and monitored by thin layer chromatography. […] Samples were resolved by SDS-PAGE and subjected to autoradiography. C. The RNA binding activity of eIF4AIf is inhibited by hippuristanol. Oxidized ^32P-cap labeled CAT mRNA was incubated with recombinant eIF4AIf in the absence (lane 2) or presence of ATP (lanes 1, 3-6), 0.6 mM m^7GDP (lane 3), 0.6 mM GDP (lane 4), or 50 μM hippuristanol (lane 6). Following treatment with RNase A, samples were resolved by SDS-PAGE and subjected to autoradiography. The asterisk denotes the position of migration of a ˜30 kDa contaminant in the recombinant eIF4AIf preparation used as an internal loading reference. D. The RNA binding activity of eIF4Ac is inhibited by hippuristanol. Oxidized ^32P-cap labeled CAT mRNA was incubated with 0.7 μg of native eIF4F in the absence (lane 1) or presence (lane 2) of 50 μM hippuristanol. […]
(§2) Recombinant eIF4AI Purification and Assays. […] Quantifications were performed on a Fujix BAS2000 phosphoimager with a Fuji imaging screen. […]

The next experiment concerns the target eIF4Ac (Homo sapiens, UniProt P60842). As to the kind of experiment: UV crosslinking of alpha-32P-ATP to native eIF4F. In kind it is binding. The note with it: 50 μM. The procedure: as §1, §2

T1 sequence (P60843 whole entry): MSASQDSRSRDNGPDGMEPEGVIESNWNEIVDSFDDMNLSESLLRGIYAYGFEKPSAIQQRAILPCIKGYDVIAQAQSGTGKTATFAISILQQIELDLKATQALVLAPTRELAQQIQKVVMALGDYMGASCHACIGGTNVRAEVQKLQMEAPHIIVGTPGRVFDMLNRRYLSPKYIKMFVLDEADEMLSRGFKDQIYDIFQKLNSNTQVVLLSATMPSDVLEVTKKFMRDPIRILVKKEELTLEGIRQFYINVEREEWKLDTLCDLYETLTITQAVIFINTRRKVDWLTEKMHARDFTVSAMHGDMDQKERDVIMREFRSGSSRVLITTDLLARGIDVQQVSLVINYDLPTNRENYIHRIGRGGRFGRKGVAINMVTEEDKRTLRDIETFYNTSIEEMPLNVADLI
Chain of eIF4Ac (P60842 whole entry): as the sequence (P60843 whole entry) above
Chain of eIF4Ac (P06730 whole entry partner): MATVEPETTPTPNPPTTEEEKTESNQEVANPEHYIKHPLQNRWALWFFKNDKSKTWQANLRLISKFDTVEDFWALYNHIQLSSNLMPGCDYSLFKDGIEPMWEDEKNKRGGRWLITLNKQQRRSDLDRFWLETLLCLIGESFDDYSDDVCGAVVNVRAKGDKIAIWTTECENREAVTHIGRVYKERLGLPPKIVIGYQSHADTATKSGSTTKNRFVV
Chain of eIF4Ac (Q04637 whole entry partner): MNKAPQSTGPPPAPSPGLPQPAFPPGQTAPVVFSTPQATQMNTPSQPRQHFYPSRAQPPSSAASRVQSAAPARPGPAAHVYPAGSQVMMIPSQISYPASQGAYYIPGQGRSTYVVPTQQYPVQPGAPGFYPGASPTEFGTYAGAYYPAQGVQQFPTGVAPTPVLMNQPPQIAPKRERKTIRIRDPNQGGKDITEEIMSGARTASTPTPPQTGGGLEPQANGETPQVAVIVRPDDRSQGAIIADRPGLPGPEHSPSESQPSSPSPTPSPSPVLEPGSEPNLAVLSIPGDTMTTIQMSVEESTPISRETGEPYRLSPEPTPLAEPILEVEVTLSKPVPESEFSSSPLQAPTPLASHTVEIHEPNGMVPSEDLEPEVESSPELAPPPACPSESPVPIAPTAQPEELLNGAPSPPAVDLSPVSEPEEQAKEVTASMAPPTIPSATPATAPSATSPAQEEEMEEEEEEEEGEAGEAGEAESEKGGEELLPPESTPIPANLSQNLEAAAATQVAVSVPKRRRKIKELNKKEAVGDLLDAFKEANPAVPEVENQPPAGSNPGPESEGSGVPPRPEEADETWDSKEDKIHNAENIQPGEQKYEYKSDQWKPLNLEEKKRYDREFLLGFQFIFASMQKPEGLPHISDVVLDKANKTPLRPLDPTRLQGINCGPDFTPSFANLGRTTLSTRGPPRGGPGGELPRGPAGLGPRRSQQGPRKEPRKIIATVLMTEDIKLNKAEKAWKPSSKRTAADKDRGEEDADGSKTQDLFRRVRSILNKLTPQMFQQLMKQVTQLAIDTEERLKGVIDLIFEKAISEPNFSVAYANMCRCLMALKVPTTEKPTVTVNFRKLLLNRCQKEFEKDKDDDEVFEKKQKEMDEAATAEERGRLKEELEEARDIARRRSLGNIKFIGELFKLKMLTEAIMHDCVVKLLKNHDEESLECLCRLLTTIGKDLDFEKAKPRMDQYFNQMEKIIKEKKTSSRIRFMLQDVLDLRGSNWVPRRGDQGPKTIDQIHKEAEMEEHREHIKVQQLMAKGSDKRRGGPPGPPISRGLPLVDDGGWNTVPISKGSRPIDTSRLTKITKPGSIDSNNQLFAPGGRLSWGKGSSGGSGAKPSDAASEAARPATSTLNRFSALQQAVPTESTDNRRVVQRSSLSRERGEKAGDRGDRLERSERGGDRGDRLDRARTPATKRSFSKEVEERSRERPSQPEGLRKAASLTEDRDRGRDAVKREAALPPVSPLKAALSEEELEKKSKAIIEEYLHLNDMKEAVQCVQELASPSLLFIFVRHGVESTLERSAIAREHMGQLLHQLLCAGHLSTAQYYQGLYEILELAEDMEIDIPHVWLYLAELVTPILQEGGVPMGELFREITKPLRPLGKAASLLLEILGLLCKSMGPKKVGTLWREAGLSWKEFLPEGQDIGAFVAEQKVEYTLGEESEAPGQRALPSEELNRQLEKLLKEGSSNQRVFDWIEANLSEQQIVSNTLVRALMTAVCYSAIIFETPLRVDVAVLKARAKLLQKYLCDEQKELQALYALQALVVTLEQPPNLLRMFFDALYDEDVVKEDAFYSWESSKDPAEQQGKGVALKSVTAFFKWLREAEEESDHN

As for `C[C@H]1C[C@@]2(O[C@H]3C[C@H]4[C@@H]5CC[C@H]6C[C@H](O)CC[C@]6(C)[C@H]5[C@@H](O)C[C@]4(C)[C@H]3[C@@]2(C)O)OC1(C)C` [Hippuristanol, hippuristanol], in the experiment on HeLa cells (FIG. 4), the “eukaryotic protein synthesis (35S-methionine incorporation)” value is “inhibits”. The “reversibility of the inhibitory effect on protein synthesis” value with HeLa cells (HeLa cells, 1 μM for 60 min, then compound washed off) was “reversible”. Also, the “ATP crosslinking to eIF4AIf” value at eIF4AIf is reported as “does not affect”. Also, the “ATP crosslinking to eIF4Ac” value at eIF4Ac is “does not affect”.

The values are drawn from patent US8008346B2, “Chemotherapeutic agents for inhibition of protein translation” (The Royal University for the Advancement of Learning/McGill …, priority 2006, dated 2011).
